Like-named read-outs stand apart in the source and are kept apart here.
Key:
Experiment in all cases: Further analysis of a plurality of inhibitors and a plurality of kinases (Table 5 inhibition results)
Type in all cases: biochemical
Parameters in all cases: scale not given here
kinases of Table 5 [1] = target: kinases of Table 5 (Homo sapiens, UniProt Q05655); conditions: for Inhibition level: kinase PRKCD; for Inhibition Results (Level): kinase PRKCD (Part II, plate B2, Domain 0)
From the text: (§1) The wash solution is then discarded.

kinases of Table 5 [2] = target: T1, kinases of Table 5 (Homo sapiens, UniProt P41743); conditions: kinase PRKCI (Part I, plate A2, Domain 0)
T1 sequence (P41743 1-596): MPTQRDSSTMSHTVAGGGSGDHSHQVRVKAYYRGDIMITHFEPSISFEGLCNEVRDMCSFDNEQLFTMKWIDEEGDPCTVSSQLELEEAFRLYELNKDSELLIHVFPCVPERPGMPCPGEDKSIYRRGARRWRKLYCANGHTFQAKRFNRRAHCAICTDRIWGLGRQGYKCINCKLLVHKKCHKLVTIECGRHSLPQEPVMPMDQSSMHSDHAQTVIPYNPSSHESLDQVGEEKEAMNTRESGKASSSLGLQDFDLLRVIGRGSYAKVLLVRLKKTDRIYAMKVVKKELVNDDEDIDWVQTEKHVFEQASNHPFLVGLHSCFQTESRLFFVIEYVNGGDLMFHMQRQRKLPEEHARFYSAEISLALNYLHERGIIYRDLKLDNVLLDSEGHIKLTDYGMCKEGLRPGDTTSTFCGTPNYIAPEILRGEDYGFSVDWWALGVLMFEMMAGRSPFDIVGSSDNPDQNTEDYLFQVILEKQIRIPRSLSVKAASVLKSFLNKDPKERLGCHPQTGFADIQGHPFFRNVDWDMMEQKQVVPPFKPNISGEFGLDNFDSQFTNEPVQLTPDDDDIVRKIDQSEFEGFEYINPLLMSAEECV
From the text: as §1

kinases of Table 5 [3] = target: kinases of Table 5 (Homo sapiens, UniProt Q13557)
From the text: as §1

kinases of Table 5 [4] = target: T2, kinases of Table 5 (Homo sapiens, UniProt Q12866); conditions: inhibitor 100 uM; for Inhibition level: kinase MERTK; for Inhibition Results (Level): kinase MERTK (Part II, plate B11, Domain 1)
T2 sequence (Q12866 21-999): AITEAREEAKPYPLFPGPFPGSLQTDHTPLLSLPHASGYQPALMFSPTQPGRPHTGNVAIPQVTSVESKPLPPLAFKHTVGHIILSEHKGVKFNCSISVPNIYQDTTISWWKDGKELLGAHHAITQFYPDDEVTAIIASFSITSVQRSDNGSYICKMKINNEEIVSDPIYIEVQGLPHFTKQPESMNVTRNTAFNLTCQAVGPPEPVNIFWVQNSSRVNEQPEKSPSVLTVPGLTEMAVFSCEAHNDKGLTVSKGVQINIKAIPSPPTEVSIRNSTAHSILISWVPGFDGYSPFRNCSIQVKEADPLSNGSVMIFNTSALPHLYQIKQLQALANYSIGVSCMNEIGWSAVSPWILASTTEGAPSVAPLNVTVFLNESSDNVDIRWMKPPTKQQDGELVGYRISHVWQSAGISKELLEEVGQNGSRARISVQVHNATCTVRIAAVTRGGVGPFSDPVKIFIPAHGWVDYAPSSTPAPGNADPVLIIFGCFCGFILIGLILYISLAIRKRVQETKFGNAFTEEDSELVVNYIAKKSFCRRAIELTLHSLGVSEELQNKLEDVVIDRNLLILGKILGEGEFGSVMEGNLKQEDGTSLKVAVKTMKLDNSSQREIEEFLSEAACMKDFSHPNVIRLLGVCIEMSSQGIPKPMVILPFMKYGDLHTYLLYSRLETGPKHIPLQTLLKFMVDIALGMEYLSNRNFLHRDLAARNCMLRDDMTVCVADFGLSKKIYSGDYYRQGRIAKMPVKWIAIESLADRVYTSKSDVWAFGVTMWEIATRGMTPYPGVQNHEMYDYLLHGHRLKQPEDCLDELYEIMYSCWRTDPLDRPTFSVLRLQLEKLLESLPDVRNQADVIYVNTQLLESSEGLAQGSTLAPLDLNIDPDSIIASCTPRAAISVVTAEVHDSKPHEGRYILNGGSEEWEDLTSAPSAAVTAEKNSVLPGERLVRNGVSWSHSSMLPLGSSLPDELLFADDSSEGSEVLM
From the text: as §1

kinases of Table 5 [5] = target: kinases of Table 5 (Homo sapiens, UniProt Q8IVW4); conditions: inhibitor 100 uM; for Inhibition level: kinase CDKL3; for Inhibition Results (Level): kinase CDKL3 (Part II, plate F12, Domain 0)
From the text: as §1

kinases of Table 5 [6] = target: T3, kinases of Table 5 (Homo sapiens, UniProt O43318); conditions: kinase MAP3K7 (Part I, plate G9, Domain 0)
T3 sequence (O43318 1-606): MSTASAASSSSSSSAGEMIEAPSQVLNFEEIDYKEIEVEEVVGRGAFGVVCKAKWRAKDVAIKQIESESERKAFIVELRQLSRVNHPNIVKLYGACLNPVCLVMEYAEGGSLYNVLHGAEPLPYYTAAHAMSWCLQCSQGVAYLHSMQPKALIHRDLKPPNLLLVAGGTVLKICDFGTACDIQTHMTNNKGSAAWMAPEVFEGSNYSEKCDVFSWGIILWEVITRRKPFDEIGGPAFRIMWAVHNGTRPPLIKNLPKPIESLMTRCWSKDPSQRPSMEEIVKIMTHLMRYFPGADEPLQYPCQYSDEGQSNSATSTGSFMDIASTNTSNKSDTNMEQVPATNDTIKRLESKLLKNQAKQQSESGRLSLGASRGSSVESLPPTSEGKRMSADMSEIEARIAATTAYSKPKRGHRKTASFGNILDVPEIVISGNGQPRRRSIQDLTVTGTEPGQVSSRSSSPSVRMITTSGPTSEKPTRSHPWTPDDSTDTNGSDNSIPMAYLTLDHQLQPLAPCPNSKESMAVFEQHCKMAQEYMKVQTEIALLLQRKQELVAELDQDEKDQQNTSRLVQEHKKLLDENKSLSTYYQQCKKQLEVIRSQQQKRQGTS
From the text: as §1

[7] = kinase CAMK2D, inhibitor 100 uM
[8] = kinase CAMK2D, concentration not given

kinases of Table 5 (Homo sapiens, UniProt Q8IVW4), sequence (Q8IVW4 whole entry): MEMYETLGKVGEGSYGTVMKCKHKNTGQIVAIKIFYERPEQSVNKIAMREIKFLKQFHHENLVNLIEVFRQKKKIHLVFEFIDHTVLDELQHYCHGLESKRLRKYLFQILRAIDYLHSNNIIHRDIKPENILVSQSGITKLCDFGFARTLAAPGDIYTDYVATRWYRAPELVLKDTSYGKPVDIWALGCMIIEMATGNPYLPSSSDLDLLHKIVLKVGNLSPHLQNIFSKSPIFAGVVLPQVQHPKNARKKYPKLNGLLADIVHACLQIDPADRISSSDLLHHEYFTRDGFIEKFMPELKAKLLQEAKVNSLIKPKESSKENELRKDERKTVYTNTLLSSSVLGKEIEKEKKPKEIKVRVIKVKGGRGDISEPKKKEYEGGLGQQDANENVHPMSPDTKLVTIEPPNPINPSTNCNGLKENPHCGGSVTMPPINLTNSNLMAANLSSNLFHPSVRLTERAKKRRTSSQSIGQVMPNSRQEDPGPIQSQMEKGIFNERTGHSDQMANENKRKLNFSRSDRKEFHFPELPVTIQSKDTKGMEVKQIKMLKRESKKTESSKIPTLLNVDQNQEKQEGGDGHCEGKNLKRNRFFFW
kinases of Table 5 (Homo sapiens, UniProt Q13557), sequence (Q13557 whole entry): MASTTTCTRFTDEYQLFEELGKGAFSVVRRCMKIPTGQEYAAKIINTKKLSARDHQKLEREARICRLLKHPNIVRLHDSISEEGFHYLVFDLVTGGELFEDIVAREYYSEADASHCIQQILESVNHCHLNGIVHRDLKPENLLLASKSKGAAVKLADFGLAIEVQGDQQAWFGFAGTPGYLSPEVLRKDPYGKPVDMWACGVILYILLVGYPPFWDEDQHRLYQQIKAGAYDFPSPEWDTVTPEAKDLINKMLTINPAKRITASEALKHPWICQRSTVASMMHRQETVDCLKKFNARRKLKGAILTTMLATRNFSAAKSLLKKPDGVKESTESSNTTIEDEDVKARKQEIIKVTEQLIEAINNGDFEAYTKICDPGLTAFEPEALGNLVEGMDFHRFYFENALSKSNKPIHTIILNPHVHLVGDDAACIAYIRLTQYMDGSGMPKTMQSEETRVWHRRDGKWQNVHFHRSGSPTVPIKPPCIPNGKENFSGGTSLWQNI
kinases of Table 5 (Homo sapiens, UniProt Q05655), sequence (Q05655 whole entry): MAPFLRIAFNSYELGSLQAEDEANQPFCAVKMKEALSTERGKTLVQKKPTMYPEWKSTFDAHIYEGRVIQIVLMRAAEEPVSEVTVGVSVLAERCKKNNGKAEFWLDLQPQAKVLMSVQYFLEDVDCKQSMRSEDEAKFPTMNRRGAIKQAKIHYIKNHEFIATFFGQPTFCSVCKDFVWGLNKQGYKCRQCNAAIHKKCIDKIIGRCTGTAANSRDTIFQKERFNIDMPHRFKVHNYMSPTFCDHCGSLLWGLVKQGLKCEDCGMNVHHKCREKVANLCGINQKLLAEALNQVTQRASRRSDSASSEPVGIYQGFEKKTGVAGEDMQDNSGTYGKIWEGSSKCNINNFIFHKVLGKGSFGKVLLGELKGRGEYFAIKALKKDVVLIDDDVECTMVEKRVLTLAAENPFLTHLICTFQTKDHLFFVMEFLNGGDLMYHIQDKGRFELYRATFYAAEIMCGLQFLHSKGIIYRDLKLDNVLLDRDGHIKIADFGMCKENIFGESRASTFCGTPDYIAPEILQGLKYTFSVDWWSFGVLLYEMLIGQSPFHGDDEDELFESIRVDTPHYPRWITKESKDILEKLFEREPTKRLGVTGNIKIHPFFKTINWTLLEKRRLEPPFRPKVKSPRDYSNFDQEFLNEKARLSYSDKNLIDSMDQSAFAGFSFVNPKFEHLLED

Row | Inhibition level (kinases of Table 5 [1]; inhibitor 100 uM) | Inhibition Results (Level) (kinases of Table 5 [2]; inhibitor 100 uM) | Inhibition level (kinases of Table 5 [3]; [7]) | Inhibition level (kinases of Table 5 [4]) | Inhibition level (kinases of Table 5 [5]) | Inhibition Results (Level) (kinases of Table 5 [6]; inhibitor 100 uM) | Inhibition level (kinases of Table 5 [1]; concentration not given) | Inhibition Results (Level) (kinases of Table 5 [2]; inhibitor <3.7 mM) | Inhibition level (kinases of Table 5 [3]; [8]) | Inhibition Results (Level) (kinases of Table 5 [6]; inhibitor <3.7 mM) | Inhibition Results (Level) (kinases of Table 5 [2]; inhibitor 90 uM) | Inhibition Results (Level) (kinases of Table 5 [6]; inhibitor 90 uM) | SMILES | Inhibition Results (Level) (kinases of Table 5 [1]; inhibitor 100 uM) | Inhibition Results (Level) (kinases of Table 5 [4]) | Inhibition Results (Level) (kinases of Table 5 [5]) | Inhibition level (kinases of Table 5 [3])
1 | 0 | 0 | 2 | 2 | 1 | 0 |  |  |  |  |  |  | COc1cc2ncnc(Nc3cccc(Cl)c3)c2cc1OC [AG 1478] |  |  |  | 
2 | 0 | 2 | 2 | 2 | 0 | 1 | 0 | 0 | 0 | 0 |  |  | O=c1c(-c2ccc(O)cc2)coc2cc(O)cc(O)c12 [Genistein] |  |  |  | 
3 |  | 2 | 0 |  |  | 2 |  |  |  |  |  |  | O=S(=O)(NCCNC/C=C/c1ccc(Br)cc1)c1cccc2cnccc12 [H-89] | 1 | 2 | 1 | 
4 | 0 | 1 | 2 | 2 | 2 | 2 |  |  |  |  |  |  | CC(C)(C)n1nc(-c2ccc(Cl)cc2)c2c(N)ncnc21 [PP2] |  |  |  | 
5 | 0 | 0 | 0 | 2 | 2 | 2 | 2 |  | 2 |  | 2 | 2 | Cn1cc(C2=C(c3cn(CCCSC(=N)N)c4ccccc34)C(=O)NC2=O)c2ccccc21 [Ro-31-8220] |  |  |  | 
6 |  |  |  |  |  |  |  |  |  |  |  |  | CN[C@@H]1C[C@H]2O[C@@](C)([C@@H]1OC)n1c3ccccc3c3c4c(c5c6ccccc6n2c5c31)C(=O)NC4 [Staurosporine] |  |  |  | 2

Row | SMILES | Inhibition level (kinases of Table 5 [1]; inhibitor 100 uM) | Inhibition Results (Level) (kinases of Table 5 [2]; inhibitor 100 uM) | Inhibition level (kinases of Table 5 [3]; [7]) | Inhibition level (kinases of Table 5 [4]) | Inhibition level (kinases of Table 5 [5]) | Inhibition Results (Level) (kinases of Table 5 [6]; inhibitor 100 uM) | Inhibition level (kinases of Table 5 [1]; concentration not given) | Inhibition Results (Level) (kinases of Table 5 [2]; inhibitor <3.7 mM) | Inhibition level (kinases of Table 5 [3]; [8]) | Inhibition Results (Level) (kinases of Table 5 [6]; inhibitor <3.7 mM) | Inhibition Results (Level) (kinases of Table 5 [2]; inhibitor 90 uM) | Inhibition Results (Level) (kinases of Table 5 [6]; inhibitor 90 uM) | Inhibition Results (Level) (kinases of Table 5 [1]; inhibitor 100 uM) | Inhibition Results (Level) (kinases of Table 5 [4]) | Inhibition Results (Level) (kinases of Table 5 [5]) | Inhibition level (kinases of Table 5 [3])
7 | N#C/C(=C/c1ccc(O)c(O)c1)C(=O)NCc1ccccc1 [AG 490] | 0 | 2 | 2 | 2 | 2 | 0 |  |  |  |  |  |  |  |  |  | 
8 | O=c1c(O)c(-c2ccc(O)c(O)c2)oc2cc(O)cc(O)c12 [Quercetin] |  | 0 |  |  |  |  |  |  |  |  |  |  | 0 | 1 | 0 | 
9 | CC(=O)c1c(O)c(C)c(O)c(Cc2c(O)c3c(c(C(=O)/C=C/c4ccccc4)c2O)OC(C)(C)C=C3)c1O [Rottlerin (Mallotoxin)] |  | 2 | 2 |  |  | 2 |  |  |  |  |  |  | 0 | 2 | 1 | 

Reference: patent US20090099029A1, “Methods and substrates for conducting assays” (Invitrogen Corporation, priority 2005, published 2009)
